Measurements as given in patent US4721730A, “Adsorbent for β2 -microglobulin and immunoglobulin L-chain” (Kanegafuchi Kagaku Kogyo Kabushiki Kaisha, priority 1986, dated 1988).

Tested on: β2-m and L-chain
Experiment: adsorption ability of immobilized compounds / carriers for β2-m and L-chain
Format: binding
Conditions: compound immobilized onto a carrier; in words
Excerpt: In order to find out a compound which has an effect on adsorbing β2 -m and L-chain, compounds having various log P are immobilized onto a carrier.
As the result of an investigation using carriers having various molucular weights of the exclusion limit, it is shown that the preferable range of pore size indicated by molecular weight of the exclusion limit is from 1×10^4 to 6×10^5. […] Therefore, the molecular weight of the exclusion limit of the carrier empolyed in the present invention is preferably from 1×10^4 to 6×10^5,more preferably from 2×10^4 to 3×10^5.

## CCCCCCCCN [n-octylamine]
  adsorption ability of β2-m and L-chain: extraordinarily increased
